Assay results reported in article PMC4578755, “Development of novel cellular histone-binding and chromatin-displacement assays for bromodomain drug discovery” (Epigenetics & Chromatin, 2015).

Target: T1, endogenous TRIM24 in OV90 cells (Homo sapiens, UniProt O15164)
T1 construct: non-transfected OV90 cells looking at endogenous TRIM24; endogenous in cells; host or cells: OV90
T1 sequence (O15164 1-1050): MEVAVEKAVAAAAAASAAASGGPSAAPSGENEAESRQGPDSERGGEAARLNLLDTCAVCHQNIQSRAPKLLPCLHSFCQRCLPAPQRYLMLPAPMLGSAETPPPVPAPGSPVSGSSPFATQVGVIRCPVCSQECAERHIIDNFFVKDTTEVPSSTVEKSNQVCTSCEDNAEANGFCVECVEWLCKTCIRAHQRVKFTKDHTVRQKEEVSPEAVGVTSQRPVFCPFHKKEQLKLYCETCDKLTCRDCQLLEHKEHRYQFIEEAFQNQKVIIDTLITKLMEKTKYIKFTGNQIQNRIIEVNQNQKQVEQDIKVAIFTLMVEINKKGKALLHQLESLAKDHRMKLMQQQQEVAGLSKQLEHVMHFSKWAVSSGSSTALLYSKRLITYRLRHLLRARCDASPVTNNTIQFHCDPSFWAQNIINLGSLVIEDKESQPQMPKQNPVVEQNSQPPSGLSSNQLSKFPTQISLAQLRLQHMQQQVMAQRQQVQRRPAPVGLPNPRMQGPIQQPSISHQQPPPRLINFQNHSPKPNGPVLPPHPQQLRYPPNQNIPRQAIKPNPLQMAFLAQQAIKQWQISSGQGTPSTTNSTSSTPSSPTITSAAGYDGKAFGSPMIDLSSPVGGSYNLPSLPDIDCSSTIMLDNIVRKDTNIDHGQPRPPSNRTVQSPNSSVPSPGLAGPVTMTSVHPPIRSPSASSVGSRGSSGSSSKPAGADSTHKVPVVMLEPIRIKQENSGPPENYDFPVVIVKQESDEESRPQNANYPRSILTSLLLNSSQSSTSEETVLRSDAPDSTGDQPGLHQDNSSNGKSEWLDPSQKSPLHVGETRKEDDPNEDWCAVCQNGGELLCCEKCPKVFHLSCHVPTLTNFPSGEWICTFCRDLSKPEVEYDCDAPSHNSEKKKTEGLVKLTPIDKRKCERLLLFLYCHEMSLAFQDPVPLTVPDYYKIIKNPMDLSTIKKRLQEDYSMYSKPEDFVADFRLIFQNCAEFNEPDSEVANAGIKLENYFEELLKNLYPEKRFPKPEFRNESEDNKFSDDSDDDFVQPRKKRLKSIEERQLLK
Assay: In situ cell extraction with IF in OV90 cells
Type: cell-based
Protocol: OV90 or HeLa cells (20,000 cells/100 µL) were seeded into 96-well plates (Corning Costar #3603) using RPMI or DMEM medium, respectively, supplemented with 10 % FBS and grown overnight. Test agents were serially diluted in DMSO (with or without SAHA) to generate 10X master compound plates. From here, 11 µL was transferred into each well containing 100 µL of growth media followed by shaking on a rotation table (15 min, 300 rpm at RT) and incubation at 37 °C for 2 h. Plates were washed once with PBS (150 µL/well) and then with cold, freshly prepared Cytoskeleton (CSK) Buffer (10 mM PIPES, 300 mM Sucrose, 100 mM NaCl, 3 mM MgCl2; pH = 6.8). Immediately thereafter, soluble, non-chromatin-bound proteins were extracted by addition of cold CSK Buffer supplemented with 0.5 % Triton X-100 (150 µL per well) for 10 min at 4 °C followed by 4 % paraformaldehyde fixation (10 min at RT) (Additional file 1: Table S3).
Standard IF procedures were used. Briefly, cells were permeabilized (0.5 % Triton X-100 in PBS) for 15 min and incubated with blocking solution (DAKO #X0909) for 30 min. The following primary antibodies were used: goat anti-V5 (Bethyl #A190-119A) 1:200; mouse anti-FLAG (Sigma #F1804) 1:200; rabbit anti-BRD4 (Abcam #ab128874) 1:200; rabbit anti-TRIM24 (Proteintech #14208-1-AP) 1:400; rabbit anti-K3K23Ac (Cell Signaling #8848) 1:200, and mouse anti-histone H3 (Active Motif #39763) 1:4000. Alexa Fluor-conjugated secondary antibodies were from Invitrogen and Hoechst 33342 (Invitrogen, #H3570) was used for nuclei counterstaining (10 µg/ml). For each Alexa fluorochrome, images (4–10 fields per well; 20X magnifications) were acquired using the Operetta High-Content Screening System (PerkinElmer). Image analysis was performed in Harmony software (PerkinElmer) by selecting nuclei and cytoplasm in Hoechst channel. Gating for single cells of flat morphology was done based on nuclei area, roundness and intensity of Hoechst in the nucleus and in the cytoplasm. In every gated cell, the mean signal intensity value for each fluorochrome was calculated separately in nucleus and cytoplasm. The specific nuclear signal was estimated subtracting mean cytoplasmic value from nuclear; and average value was calculated using at least 1000 cells in each well.
Supplemental Table S3 (Zhan et al.)
Table S3. In Situ Cell Extraction Procedure (IF)
Step Parameter Solution Volume Time Temp (°C)
Seed cells DMEM supplemented with 10 % FBS 37°C,
2 SAHA treatment SAHA (50 µM) in DMEM with 10% FBS 12 µL 2h 37°C,
3 Prepare Master 100X final concentration in assay 30 µL […]
Image analysis: The analysis was performed in Harmony (PerkinElmer) software by selecting nuclei and cytoplasm in Hoechst 33342 channel . […] For each channel “mean nuclear signal“ was calculated as “mean […]

Compound | Histone H3 protein levels (OV90, 10 µM, 2 h) | Chromatin binding of endogenous TRIM24 (OV90 cells) | Time to displacement of endogenous TRIM24 from chromatin (non-transfected OV90 cells) | Mean IF nuclei intensity of endogenous TRIM24 (OV90, SAHA treatment)
Cc1nc(S(=O)(=O)Nc2cc3c(cc2Oc2cccc(OCC(C)C)c2)n(C)c(=O)n3C)cn1C [IACS-6558, N-{1,3-dimethyl-6-[3-(2-methylpropoxy)phenoxy]-2-oxo-2,3-dihydro-1H-1,3-benzodiazol-5-yl}-1,2-dimethyl-1H-imidazole-4-sulfonamide] | unchanged | readily reduced | ≤ 5 min | –
O=C(CCCCCCC(=O)Nc1ccccc1)NO [SAHA, Suberoylanilide Hydroxamic Acid] | – | – | – | did not change
